Measurements reported in patent US20260274853A1, “BIFUNCTIONAL COMPOUNDS CONTAINING PYRIMIDINE DERIVATIVES FOR DEGRADING CYCLIN-DEPENDENT KINASE 2 VIA UBIQUITIN PROTEASOME PATHWAY” (NIKANG THERAPEUTICS, INC., priority 2022, published 2026).

Key:
[1] = target: T1, CDK2 (Homo sapiens, UniProt P24941); assay: Inhibition of CDK2: phospho-Rb (S807/811) HTRF measurement in OVCAR3 cells; format: cell-based; details: 24 h compound treatment, read-out: pRb (nM), IC50 in pRB(S807/811) assay
T1 construct: High-Throughput Measurement of Cellular Endogenous CDK2; endogenous in cells; host or cells: OVCAR3

[2] = target: T1, CDK2; assay: CDK2 HTRF assay: cellular endogenous CDK2 level in OVCAR3 cells; format: cell-based; details: 24 hours compound treatment, read-out: DC50 (half maximal degradation concentration of CDK2)
Description: Effects of compounds on cellular CDK2 level can be monitored by a high-throughput HTRF assay or traditional Western Blot assay.
To determine half maximal degradation concentration (DC50) values of compounds, cellular CDK2 level was measured in 96-well format using HTRF total CDK2 cellular kit (Cat #64CDK2TPEG) from Cisbio.
On Day 1, OVCAR3 cells were seeded into 96-well tissue-culture treated plates at 20,000 cells/well in 200 μL and incubated overnight at 37° C. in CO2 atmosphere. On Day 2 cells were treated with compounds at concentration ranging from 0.3 to 10,000 nM using HP D300 digital dispenser. 24 hours after compound treatment, cell culture media was removed by flicking the plate and tapping the plate against clean paper towel. Immediately 30 μL 1× lysis buffer was supplemented from the kit and the plate was incubated at room temperature on shaker for 30 min. After homogenization by pipetting up and down, 8 μL cell lysate from 96-well cell culture plate was transferred to 384-well small volume white detection plate. 2 μL premixed detection solution was added and the plate was covered with sealer. To prepare the detection solution, d2 conjugated-CDK2 antibody and Eu-cryptate conjugated CDK2 antibody were diluted into detection buffer following manufacturer's instruction. Detection plates were incubated overnight at room temperature and read on ClarioStar (BMG Labtech) in TR-FRET mode (665 nM and 620 nM). The TR-FRET ratio (665 nM/620 nM) was plotted against the compound concentration and normalized to DMSO controls. Half maximal degradation concentration (DC50) values were calculated with a four-parameter logistic fit using GraphPad Prism (version 8; La Jolla, CA).
In the table below, A indicates a DC50 of less than 0.1 μM; B indicates a DC50 of greater than or equal to 0.1 μM but less than 0.5 μM; C indicates a DC50 of greater than or equal to 0.5 μM but less than 1 μM; and D indicates a DC50 of greater than or equal to 1 μM but less than 10 μM.

## Cn1nc(N2CCC(=O)NC2=O)c2ccc(N3CCN(CC4CCN(c5cccc(S(=O)(=O)N6CCC(Nc7ncc(C(F)(F)F)c(-c8cnn(CC(F)(F)F)c8)n7)CC6)c5)CC4)CC3)cc21 [Example 67, 1-(1-methyl-6-(4-((1-(3-((4-((4-(1-(2,2,2-trifluoroethyl)-1H-pyrazol-4-yl)-5-(trifluoromethyl)pyrimidin-2-yl)amino)-piperidin-1-yl)sulfonyl)phenyl)piperidin-4-yl)methyl)-piperazin-1-yl)-1H-indazol-3-yl)-dihydropyrimidine-2,4(1H,3H)-dione]
[1]
  IC50: < 100 nM
[2]
  DC50: < 100 nM

## Cn1nc(N2CCC(=O)NC2=O)c2ccc(C3CCN(Cc4cc(S(=O)(=O)N5CCC(Nc6ncc(C(F)(F)F)c(-c7cnn(CC(F)(F)F)c7)n6)CC5)ccc4F)CC3)cc21 [Example 61, 1-(6-(1-(2-fluoro-5-((4-((4-(1-(2,2,2-trifluoroethyl)-1H-pyrazol-4-yl)-5-(trifluoromethyl)pyrimidin-2-yl)-amino)piperidin-1-yl)sulfonyl)benzyl)-piperidin-4-yl)-1-methyl-1H-indazol-3-yl)dihydropyrimidine-2,4(1H,3H)-dione]
[1]
  IC50: < 100 nM
[2]
  DC50: < 100 nM

## O=C1CCC(N2Cc3cc(N4CCN(Cc5cccc(S(=O)(=O)N6CCC(Nc7ncc(C(F)(F)F)c(-c8cnn(CC(F)(F)F)c8)n7)CC6)c5)CC4)c(F)cc3C2=O)C(=O)N1 (stereo not drawn) [Example 15, 3-(6-fluoro-1-oxo-5-(4-(3-((4-((4-(1-(2,2,2-trifluoroethyl)-1H-pyrazol-4-yl)-5-(trifluoromethyl)pyrimidin-2-yl)-amino)piperidin-1-yl)sulfonyl)benzyl)-piperazin-1-yl)isoindolin-2-yl)-piperidine-2,6-dione]
[1]
  IC50: < 100 nM
[2]
  DC50: < 100 nM

## O=C1CCN(c2ccc(N3CCN(Cc4cccc(S(=O)(=O)N5CCC(Nc6ncc(C(F)(F)F)c(-c7cnn(CC(F)(F)F)c7)n6)CC5)c4)CC3)c(C(F)(F)F)c2)C(=O)N1 [Example 16, 1-(4-(4-(3-((4-((4-(1-(2,2,2-trifluoro-ethyl)-1H-pyrazol-4-yl)-5-(trifluoro-methyl)pyrimidin-2-yl)amino)-piperidin-1-yl)sulfonyl)benzyl)-piperazin-1-yl)-3-(trifluoromethyl)-phenyl)dihydro-pyrimidine-2,4(1H,3H)-dione]
[1]
  IC50: 1000 to 10000 nM
[2]
  DC50: 1000 to 10000 nM

## O=C1CCC(c2ccc(N3CCN(Cc4cccc(S(=O)(=O)N5CCC(Nc6ncc(C(F)(F)F)c(-c7cnn(CC(F)(F)F)c7)n6)[C@H](F)C5)c4)CC3)c(F)c2)C(=O)N1 (mixture of isomers) [Example 29, Rac-3-(3-fluoro-4-(4-(3-(((3R,4S)-3-fluoro-4-((4-(1-(2,2,2-trifluoroethyl)-1H-pyrazol-4-yl)-5-(trifluoromethyl)-pyrimidin-2-yl)amino)piperidin-1-yl)-sulfonyl)benzyl)piperazin-1-yl)phenyl)-piperidine-2,6-dione]
[1]
  IC50: < 100 nM
[2]
  DC50: < 100 nM

## O=C1CCN(C2CCN(Cc3cccc(S(=O)(=O)N4CCC(Nc5ncc(C(F)(F)F)c(-c6cnn(CC(F)(F)F)c6)n5)CC4)c3)C2)C(=O)N1 (stereo not drawn) [Example 81, 1-(1-(3-((4-((4-(1-(2,2,2-trifluoro-ethyl)-1H-pyrazol-4-yl)-5-(trifluoromethyl)-pyrimidin-2-yl)amino)-piperidin-1-yl)sulfonyl)benzyl)-pyrrolidin-3-yl)-dihydropyrimidine-2,4(1H,3H)-dione]
[1]
  IC50: < 100 nM
[2]
  DC50: < 100 nM

## Cn1nc(N2CCC(=O)NC2=O)c2ccc(C3CCN(Cc4cccc(S(=O)(=O)[C@H]5CC[C@H](Nc6ncc(C(F)(F)F)c(-c7cnn(CC(F)(F)F)c7)n6)CC5)c4)CC3)cc21 [Example 74, 1-(1-methyl-6-(1-(3-(((1r,4r)-4-((4-(1-(2,2,2-trifluoroethyl)-1H-pyrazol-4-yl)-5-(trifluoromethyl)pyrimidin-2-yl)-amino)cyclohexyl)sulfonyl)benzyl)-piperidin-4-yl)-1H-indazol-3-yl)dihydro-pyrimidine-2,4(1H,3H)-dione]
[1]
  IC50: < 100 nM
[2]
  DC50: < 100 nM

## O=C1CCC(N2Cc3cc(N4CCC5(CCN(Cc6cccc(S(=O)(=O)N7CCC(Nc8ncc(C(F)(F)F)c(-c9cnn(CC(F)(F)F)c9)n8)CC7)c6)CC5)CC4)ccc3C2=O)C(=O)N1 (stereo not drawn) [Example 12, 3-(1-oxo-5-(9-(3-((4-((4-(1-(2,2,2-trifluoroethyl)-1H-pyrazol-4-yl)-5-(trifluoromethyl)pyrimidin-2-yl)amino)-piperidin-1-yl)sulfonyl)-benzyl)-3,9-diazaspiro[5.5]undecan-3-yl)isoindolin-2-yl)piperidine-2,6-dione]
[1]
  IC50: < 100 nM
[2]
  DC50: < 100 nM

## Cn1c(S(=O)(=O)N2CCC(Nc3ncc(C(F)(F)F)c(-c4cnn(CC(F)(F)F)c4)n3)CC2)cnc1CN1CCN(c2ccc3c(N4CCC(=O)NC4=O)nn(C)c3c2)CC1 [Example 69, 1-(1-methyl-6-(4-((1-methyl-5-((4-((4-(1-(2,2,2-trifluoroethyl)-1H-pyrazol-4-yl)-5-(trifluoromethyl)pyrimidin-2-yl)amino)-piperidin-1-yl)sulfonyl)-1H-imidazol-2-yl)methyl)piperazin-1-yl)-1H-indazol-3-yl)dihydropyrimidine-2,4(1H,3H)-dione]
[1]
  IC50: < 100 nM
[2]
  DC50: < 100 nM

## O=C1CCC(N2C(=O)c3cc(F)c(N4CCN(Cc5cccc(S(=O)(=O)N6CC[C@H](Nc7ncc(C(F)(F)F)c(-c8cnn(CC(F)(F)F)c8)n7)[C@H](F)C6)c5)CC4)cc3C2=O)C(=O)N1 (mixture of isomers) [Example 32, Rac-2-(2,6-dioxopiperidin-3-yl)-5-fluoro-6-(4-(3-(((3R,4S)-3-fluoro-4-((4-(1-(2,2,2-trifluoroethyl)-1H-pyrazol-4-yl)-5-(trifluoromethyl)-pyrimidin-2-yl)amino)piperidin-1-yl)sulfonyl)-benzyl)piperazin-1-yl)-isoindoline-1,3-dione]
[1]
  IC50: 1000 to 10000 nM
[2]
  DC50: 100 to 500 nM

## O=C1CCC(N2Cc3cc(C4CN(Cc5cccc(S(=O)(=O)N6CCC(Nc7ncc(C(F)(F)F)c(-c8cnn(CC(F)(F)F)c8)n7)CC6)c5)C4)ccc3C2=O)C(=O)N1 (stereo not drawn) [Example 3, 3-(1-oxo-5-(1-(3-((4-((4-(1-(2,2,2-trifluoroethyl)-1H-pyrazol-4-yl)-5-(trifluoromethyl)pyrimidin-2-yl)-amino)-piperidin-1-yl)sulfonyl)-benzyl)azetidin-3-yl)isoindolin-2-yl)piperidine-2,6-dione]
[1]
  IC50: < 100 nM
[2]
  DC50: < 100 nM

## O=C1CCN(c2ccc(N3CCN(Cc4cccc(S(=O)(=O)N5CC[C@@H](Nc6ncc(C(F)(F)F)c(-c7cnn(CC(F)(F)F)c7)n6)[C@@H](F)C5)c4)CC3)cc2)C(=O)N1 (racemic) [Example 28, Rac-1-(4-(4-(3-(((3R,4S)-3-fluoro-4-((4-(1-(2,2,2-trifluoroethyl)-1H-pyrazol-4-yl)-5-(trifluoromethyl)-pyrimidin-2-yl)amino)piperidin-1-yl)sulfonyl)-benzyl)piperazin-1-yl)phenyl)dihydro-pyrimidine-2,4(1H,3H)-dione]
[1]
  IC50: 100 to 500 nM
[2]
  DC50: < 100 nM

## CC(Cc1cccc(S(=O)(=O)N2CCC(Nc3ncc(C(F)(F)F)c(-c4cnn(-c5ccccc5F)c4)n3)CC2)c1)N1CCC(c2ccc3c(N4CCC(=O)NC4=O)nn(C)c3c2)CC1 (stereo not drawn) [Example 96, 1-(6-(1-(1-(3-((4-((4-(1-(2-fluoro-phenyl)-1H-pyrazol-4-yl)-5-(trifluoro-methyl)pyrimidin-2-yl)amino)-piperidin-1-yl)sulfonyl)phenyl)propan-2-yl)-piperidin-4-yl)-1-methyl-1H-indazol-3-yl)dihydropyrimidine-2,4(1H,3H)-dione]
[1]
  IC50: < 100 nM
[2]
  DC50: < 100 nM

## O=C1CCC(c2ccc(N3CCN(Cc4cccc(S(=O)(=O)N5CCC(Nc6ncc(C(F)(F)F)c(-c7cnn(CC(F)(F)F)c7)n6)CC5)c4)CC3)c(F)c2)C(=O)N1 (stereo not drawn) [Example 14, 3-(3-fluoro-4-(4-(3-((4-((4-(1-(2,2,2-trifluoroethyl)-1H-pyrazol-4-yl)-5-(trifluoromethyl)pyrimidin-2-yl)-amino)piperidin-1-yl)sulfonyl)benzyl)-piperazin-1-yl)phenyl)piperidine-2,6-dione]
[1]
  IC50: < 100 nM
[2]
  DC50: < 100 nM

## O=C1CCC(N2C(=O)c3cc(F)c(N4CC5(CN(Cc6cccc(S(=O)(=O)N7CCC(Nc8ncc(C(F)(F)F)c(-c9cnn(CC(F)(F)F)c9)n8)CC7)c6)C5)C4)cc3C2=O)C(=O)N1 (stereo not drawn) [Example 31, 2-(2,6-dioxopiperidin-3-yl)-5-fluoro-6-(6-(3-((4-((4-(1-(2,2,2-trifluoroethyl)-1H-pyrazol-4-yl)-5-(trifluoromethyl)-pyrimidin-2-yl)amino)piperidin-1-yl)-sulfonyl)benzyl)-2,6-diazaspiro[3.3]-heptan-2-yl)isoindoline-1,3-dione]
[1]
  IC50: < 100 nM
[2]
  DC50: < 100 nM
